Consider 20 molecules from ChEMBL document CHEMBL1201862, “PubChem BioAssay data set” (2004).

The term EC50 denotes the concentration needed to bring the measured effect to its halfway point. A word on the IC50: it is the concentration at which inhibition is half-maximal. In general, AC50 refers to the concentration giving half of the maximal activity seen.

Assay [1] is described as follows: C. albicans growth with fluconazole, confirmation, fluorescence, retest (AID 2467). The format is functional, cell-based.
Assay [2] can be described thus: NIH-3T3 fibroblast cytotoxicity, dose response, cytotoxicity control, cell-based, fluorescence, Alamar Blue, secondary assay (AID 2327).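 Note: NIH-3T3 mouse fibroblasts cultured with fluconazole at 8 µg/mL.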 The format is functional. (Resazurin is reduced to fluorescent resorufin, in cell work by metabolically active cells.)
In the next assay the target is T1, Leucine aminopeptidase (Plasmodium falciparum 3D7, UniProt Q8IL11).
T1 sequence (Q8IL11 whole entry): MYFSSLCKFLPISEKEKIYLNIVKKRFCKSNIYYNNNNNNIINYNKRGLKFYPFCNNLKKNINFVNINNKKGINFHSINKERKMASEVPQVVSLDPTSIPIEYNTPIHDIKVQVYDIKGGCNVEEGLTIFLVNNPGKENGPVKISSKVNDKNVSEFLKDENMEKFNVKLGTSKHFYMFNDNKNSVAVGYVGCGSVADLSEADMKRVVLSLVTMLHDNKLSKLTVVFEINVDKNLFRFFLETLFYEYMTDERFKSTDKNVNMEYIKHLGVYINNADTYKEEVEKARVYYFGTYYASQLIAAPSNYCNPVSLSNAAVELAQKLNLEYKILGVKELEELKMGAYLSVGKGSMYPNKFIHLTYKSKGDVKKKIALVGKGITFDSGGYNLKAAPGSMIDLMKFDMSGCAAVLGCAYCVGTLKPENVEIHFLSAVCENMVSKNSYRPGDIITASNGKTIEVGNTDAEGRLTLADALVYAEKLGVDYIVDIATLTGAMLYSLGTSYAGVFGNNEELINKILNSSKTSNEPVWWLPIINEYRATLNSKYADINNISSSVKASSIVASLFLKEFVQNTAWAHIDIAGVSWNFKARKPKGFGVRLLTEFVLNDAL
In words: P. falciparum M17LAP inhibitors, primary screen, biochemical, fluorogenic H-Leu-NHMec substrate, 1536-well (AID 1619). The format is functional.

Assay [3] can be described thus: cells. It is filed as functional, cell-based.
Assay [4] in a line: cells. The format is functional, cell-based. The source holds these as a separate data set.
The target in a further assay is T2, Protein RecA (Mycobacterium tuberculosis, UniProt P9WHJ3).
T2 sequence (P9WHJ3 whole entry): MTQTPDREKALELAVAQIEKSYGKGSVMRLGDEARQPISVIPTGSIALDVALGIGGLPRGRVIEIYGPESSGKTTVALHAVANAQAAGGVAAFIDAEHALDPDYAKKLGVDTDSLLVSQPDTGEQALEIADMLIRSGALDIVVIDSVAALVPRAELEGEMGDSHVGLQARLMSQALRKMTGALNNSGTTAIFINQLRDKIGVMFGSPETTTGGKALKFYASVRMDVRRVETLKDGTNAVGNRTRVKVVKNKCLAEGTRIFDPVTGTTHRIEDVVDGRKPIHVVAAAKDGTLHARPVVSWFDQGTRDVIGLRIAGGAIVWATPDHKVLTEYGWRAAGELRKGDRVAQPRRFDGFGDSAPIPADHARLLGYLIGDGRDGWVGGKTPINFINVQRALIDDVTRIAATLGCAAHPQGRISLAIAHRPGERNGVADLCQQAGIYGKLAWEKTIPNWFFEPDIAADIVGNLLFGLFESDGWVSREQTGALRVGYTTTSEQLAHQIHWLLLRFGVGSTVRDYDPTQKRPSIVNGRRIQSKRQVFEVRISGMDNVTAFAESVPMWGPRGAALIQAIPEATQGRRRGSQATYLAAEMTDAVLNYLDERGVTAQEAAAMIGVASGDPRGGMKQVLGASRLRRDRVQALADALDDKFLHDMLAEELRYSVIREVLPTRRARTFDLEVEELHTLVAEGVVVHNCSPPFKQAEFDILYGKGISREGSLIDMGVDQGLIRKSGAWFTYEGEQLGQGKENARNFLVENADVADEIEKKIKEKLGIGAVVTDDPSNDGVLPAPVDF
Briefly: Fluorescence Cell-Free Homogeneous Dose Retest to Identify Inhibitors of RecA-Intein Splicing Activity. [Related pubchem assays (depositor defined):AID2097, AID2223, AID489010, AID492950]. The format is functional.

Assay [5] has as its target T3, Replicative DNA helicase DnaB (Mycobacterium tuberculosis, UniProt P9WMR3).
T3 sequence (P9WMR3 whole entry): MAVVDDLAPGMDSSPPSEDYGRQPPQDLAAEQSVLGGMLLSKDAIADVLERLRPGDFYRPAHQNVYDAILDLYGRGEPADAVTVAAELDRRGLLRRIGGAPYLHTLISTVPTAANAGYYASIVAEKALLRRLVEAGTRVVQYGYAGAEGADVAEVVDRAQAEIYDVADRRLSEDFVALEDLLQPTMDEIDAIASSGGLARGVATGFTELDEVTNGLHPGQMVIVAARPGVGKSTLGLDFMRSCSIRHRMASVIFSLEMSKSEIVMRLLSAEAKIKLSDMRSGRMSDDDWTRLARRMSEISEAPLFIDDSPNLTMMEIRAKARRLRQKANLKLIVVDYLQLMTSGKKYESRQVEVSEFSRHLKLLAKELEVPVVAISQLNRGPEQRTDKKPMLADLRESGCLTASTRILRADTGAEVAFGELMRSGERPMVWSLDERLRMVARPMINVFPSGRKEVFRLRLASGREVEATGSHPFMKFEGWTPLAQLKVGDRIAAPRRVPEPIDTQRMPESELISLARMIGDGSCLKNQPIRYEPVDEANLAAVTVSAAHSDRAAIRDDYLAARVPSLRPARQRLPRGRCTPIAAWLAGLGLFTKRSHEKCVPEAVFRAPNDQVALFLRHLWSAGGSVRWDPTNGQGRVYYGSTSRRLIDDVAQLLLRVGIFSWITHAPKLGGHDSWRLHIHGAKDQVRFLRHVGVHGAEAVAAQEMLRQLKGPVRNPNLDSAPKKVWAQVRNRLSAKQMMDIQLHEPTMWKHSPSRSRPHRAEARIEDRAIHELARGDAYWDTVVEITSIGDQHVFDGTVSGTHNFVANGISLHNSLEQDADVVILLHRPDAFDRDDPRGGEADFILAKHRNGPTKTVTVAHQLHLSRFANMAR
In words: DnaB intein splicing inhibitors, dose response, biochemical, cell-free fluorescence (AID 449749). It is filed as functional.

In another assay the target is T4, Aminopeptidase N (Plasmodium falciparum FcB1/Columbia, UniProt O96935).
T4 sequence (O96935 whole entry): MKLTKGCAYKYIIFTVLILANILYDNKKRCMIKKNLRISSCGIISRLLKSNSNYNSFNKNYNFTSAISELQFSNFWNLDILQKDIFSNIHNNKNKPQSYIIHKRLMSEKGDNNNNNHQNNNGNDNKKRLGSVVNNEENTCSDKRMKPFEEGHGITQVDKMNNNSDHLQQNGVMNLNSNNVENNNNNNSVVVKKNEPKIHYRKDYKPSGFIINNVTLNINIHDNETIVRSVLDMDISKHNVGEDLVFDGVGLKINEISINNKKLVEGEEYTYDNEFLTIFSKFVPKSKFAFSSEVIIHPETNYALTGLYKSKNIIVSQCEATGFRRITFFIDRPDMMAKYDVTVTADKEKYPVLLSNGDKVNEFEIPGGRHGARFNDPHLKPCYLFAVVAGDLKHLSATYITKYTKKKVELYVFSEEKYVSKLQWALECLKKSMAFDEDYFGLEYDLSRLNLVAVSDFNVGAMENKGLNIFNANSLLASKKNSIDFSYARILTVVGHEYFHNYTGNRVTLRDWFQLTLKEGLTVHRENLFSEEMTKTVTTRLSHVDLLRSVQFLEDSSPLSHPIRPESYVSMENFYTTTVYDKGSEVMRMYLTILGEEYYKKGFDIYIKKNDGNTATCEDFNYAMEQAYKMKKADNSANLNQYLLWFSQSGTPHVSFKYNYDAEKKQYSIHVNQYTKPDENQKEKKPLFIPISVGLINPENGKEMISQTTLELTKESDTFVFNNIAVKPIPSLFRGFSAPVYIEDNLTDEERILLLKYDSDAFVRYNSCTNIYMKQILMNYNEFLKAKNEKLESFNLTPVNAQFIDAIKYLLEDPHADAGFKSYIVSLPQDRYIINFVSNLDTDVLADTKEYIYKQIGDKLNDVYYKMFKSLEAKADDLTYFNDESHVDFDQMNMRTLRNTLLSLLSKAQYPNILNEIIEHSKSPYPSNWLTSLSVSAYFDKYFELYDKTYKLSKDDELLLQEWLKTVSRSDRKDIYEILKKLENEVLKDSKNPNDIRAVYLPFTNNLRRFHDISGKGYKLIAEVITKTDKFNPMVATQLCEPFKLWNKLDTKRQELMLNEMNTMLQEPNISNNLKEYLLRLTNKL
Briefly: P. falciparum M1AAP inhibitors, biochemical, fluorogenic H-Leu-NHMec substrate, 1536-well (AID 1445). Also noted: species or system Plasmodium falciparum 3D7, 3D7.

Assay [6] has as its target T5, Rac GTPase-activating protein 1 (Homo sapiens, UniProt Q9H0H5).
T5 sequence (Q9H0H5 whole entry): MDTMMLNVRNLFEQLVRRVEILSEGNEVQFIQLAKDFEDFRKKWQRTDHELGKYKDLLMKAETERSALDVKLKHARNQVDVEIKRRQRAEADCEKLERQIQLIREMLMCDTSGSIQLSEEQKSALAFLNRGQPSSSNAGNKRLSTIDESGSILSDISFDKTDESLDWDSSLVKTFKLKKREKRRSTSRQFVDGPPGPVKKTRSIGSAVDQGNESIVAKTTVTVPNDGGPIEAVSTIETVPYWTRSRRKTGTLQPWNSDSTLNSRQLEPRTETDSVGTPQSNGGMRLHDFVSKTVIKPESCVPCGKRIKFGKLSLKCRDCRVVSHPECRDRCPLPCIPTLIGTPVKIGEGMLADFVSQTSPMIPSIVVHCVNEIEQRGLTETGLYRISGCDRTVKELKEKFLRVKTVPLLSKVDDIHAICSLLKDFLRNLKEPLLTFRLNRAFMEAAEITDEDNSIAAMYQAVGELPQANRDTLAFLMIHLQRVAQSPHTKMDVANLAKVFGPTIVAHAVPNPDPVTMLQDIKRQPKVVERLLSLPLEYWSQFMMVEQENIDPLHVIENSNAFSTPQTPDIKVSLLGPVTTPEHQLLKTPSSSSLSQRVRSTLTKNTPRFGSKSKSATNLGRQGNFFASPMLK
Briefly: MgcRacGAP GTPase-activating activity inhibitors, confirmation, biochemical, ADP Hunter fluorescence, primary and confirmatory (AID 624330). It is filed as functional.

Another assay deals with INS1. Briefly: beta cell apoptosis inhibitors, cytokine rescue, dose response, luminescence, retest (AID 449756).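 Note: cell death triggered by IL-1 beta plus TNF-alpha plus IFN-gamma mixture; protective hits raise ATP signal compared with cytokine alone wells.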 The format is functional, cell-based. The following applies: Rattus norvegicus.

Activity calls are given as the source filed them.

For the molecule `OCCN1CCN(C(S)=NC2CCCC2)CC1`, the half-maximal effective concentration (EC50) was 5.25 µM (active) in [1] and 50.8 µM (active) in assay [2].

As to `Cc1cc(NS(=O)(=O)c2ccc(NC(=O)CN3C(=O)c4ccccc4C3=O)cc2)nc(C)n1`, the IC50 at Leucine aminopeptidase is 64.4 µM (active).

In the case of `CCCC1C(c2ccco2)NC(c2ccco2)CC1(C)O` (stereo unspecified), the EC50 is 8.34 µM (active) in assay [1] and > 150 µM (inactive) in assay [2].

In the case of `O=C1c2ccccc2NC(c2c[nH]nc2-c2ccc(Cl)cc2)N1O` (stereo unspecified), the results for the EC50 in [1] and in assay [2] were > 38 µM (not active) and > 160 µM (inactive), respectively.

With `CCOC(=O)c1c(C)[nH]c(C(=O)OCc2ccccc2F)c1C`, the EC50 in “cells [3]” is > 350 µM (not active); in the assay “cells [4]”, 93.5 µM (active).

As to `Cn1ncc(Br)c1C(=O)OCC(=O)Nc1nc(-c2ccccc2)cs1`, the EC50 is > 350 µM (not active) in the assay “cells [3]” and 36.4 µM (active) in the assay “cells [4]”.

On to `C/C(=C\c1ccco1)C1C(C#N)=C(N)Oc2[nH]nc(-c3ccccc3)c21` (stereo unspecified), for which the IC50 on Leucine aminopeptidase was 83.7 µM (active). The 50% effective concentration (EC50) at Protein RecA was 3.12 µM (active). In assay [5], the AC50 was 6.38 µM (active).

Turning to `Cc1ccc(C2(C)NC(=O)N(CC(=O)NC(=O)NC(C)(C)C)C2=O)cc1` (stereo unspecified), the EC50 in the assay “cells [3]” and in “cells [4]” was > 350 µM (not active) each time.

As to `COc1cccc(CNc2nn[nH]n2)c1OC`, the IC50 on Leucine aminopeptidase was 67.2 µM (active).

`CCN(CC)CCNCc1nc2ccccc2c(=O)n1-c1ccc(F)cc1`: the EC50 in the assay “cells [3]” and in the assay “cells [4]” was > 350 µM (not active) in each case.

Consider `Cn1cccc1C(=O)NC(=O)COC(=O)c1cc(S(=O)(=O)N2CCCCC2)ccc1Cl`, for which the EC50 in “cells [3]” and in the assay “cells [4]” was > 350 µM (not active) throughout.

Turning to `N#C[C-](C#N)c1nc2ccccc2nc1-[n+]1cccc(NC(=O)c2ccc(F)cc2)c1`, the EC50 in the assay “cells [3]” and in “cells [4]” was > 350 µM (not active) throughout.

On to `CC(=O)Nc1ccc(NC(=O)CCCN2C(=O)c3ccccc3C2=O)cc1`, for which the EC50 in assay [2] is > 150 µM (inactive).

Take `O=C(C[n+]1ccn(CCCNP2(=O)C=C(c3ccccc3)OC(c3ccccc3)=C2)c1)c1cccs1`: the EC50 in “cells [3]” and in “cells [4]” was > 350 µM (not active) in each case.

Consider `CC1CCCCN1C(=O)CSc1nc(O)cc(-c2ccccc2)n1` (stereo unspecified), for which the IC50 on Leucine aminopeptidase was 63.5 µM (active).

Regarding `O=c1oc2c(CN3CCOCC3)c(O)c(Cl)cc2c2c1CCCC2`, the IC50 on Aminopeptidase N was 32.2 µM (active).

For `CCOc1ccc(C2C(C(=O)Nc3ccccc3)=C(C)N=c3s/c(=C/c4cccc(OCC(=O)O)c4)c(=O)n32)cc1` (stereo unspecified), the IC50 on Leucine aminopeptidase is 5.95 µM (active).

With `O=[N+]([O-])c1ccc(/C(=N\c2cccc3ccccc23)N2CCOCC2)cc1`, the EC50 was > 38 µM (not active) in [1] and > 150 µM (inactive) in [2].

Turning to `O=C1c2ccccc2C(=O)N1/N=C/c1ccc(O)c(O)c1`, the IC50 on Leucine aminopeptidase was 30.4 µM (active); in assay [6] it was 44.5 µM (active).

For the molecule `Cc1cccc(/C=N/NC(=O)c2c(-c3ccccc3)noc2C)c1O`, the EC50 in “cells [3]” is 23 µM (active); in “cells [4]”, > 350 µM (not active). In the assay on INS1, the AC50 is 1.5 µM (active).
